The results in this text go back to ChEMBL document CHEMBL5705888, “Substrate specificity and inhibitors of LRRK2, a protein kinase mutated in Parkinson's disease” (Biochem J, 2009).

Experiment [1] has as its target Serine/threonine-protein kinase Chk2 (Homo sapiens) (UniProt O96017). The experiment can be described thus: Inhibition of CHK2 (unknown origin) at 10 uM incubated for 30 mins in presence of [gamma-33P]ATP by multidrop micro reagent based assay relative to control; values are per cent of control.
In experiment [2] the target is T1, Eukaryotic elongation factor 2 kinase (Homo sapiens) (UniProt O00418).
T1 sequence (whole entry): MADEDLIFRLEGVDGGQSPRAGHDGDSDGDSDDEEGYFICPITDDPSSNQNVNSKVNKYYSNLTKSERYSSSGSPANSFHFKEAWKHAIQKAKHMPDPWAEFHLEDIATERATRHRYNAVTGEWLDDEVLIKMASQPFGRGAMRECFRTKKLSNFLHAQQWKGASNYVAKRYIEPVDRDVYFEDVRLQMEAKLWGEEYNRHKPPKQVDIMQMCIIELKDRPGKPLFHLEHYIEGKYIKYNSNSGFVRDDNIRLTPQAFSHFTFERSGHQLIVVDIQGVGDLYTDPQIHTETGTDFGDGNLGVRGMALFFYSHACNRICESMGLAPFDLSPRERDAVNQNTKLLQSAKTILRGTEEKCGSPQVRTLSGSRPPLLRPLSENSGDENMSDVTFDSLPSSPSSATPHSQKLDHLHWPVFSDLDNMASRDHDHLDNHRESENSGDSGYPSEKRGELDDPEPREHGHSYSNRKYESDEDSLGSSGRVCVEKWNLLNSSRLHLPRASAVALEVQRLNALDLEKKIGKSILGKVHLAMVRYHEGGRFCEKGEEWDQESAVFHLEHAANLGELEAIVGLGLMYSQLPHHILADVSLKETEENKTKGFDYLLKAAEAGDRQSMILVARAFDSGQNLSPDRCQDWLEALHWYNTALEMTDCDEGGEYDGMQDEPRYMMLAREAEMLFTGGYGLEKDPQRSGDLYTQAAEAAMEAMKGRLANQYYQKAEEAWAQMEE
The experiment can be described thus: Inhibition of EF2K (unknown origin) at 10 uM incubated for 30 mins in presence of [gamma-33P]ATP by multidrop micro reagent based assay relative to control; values are per cent of control.

The species entered for experiment [3] is Homo sapiens. The experiment can be described thus: Residual activity of VEGFR (unknown origin) at 10 uM incubated for 30 mins in presence of [gamma-33P]ATP by multidrop micro reagent based assay relative to control.
Experiment [4] deals with T2, Interleukin-1 receptor-associated kinase 4 (Homo sapiens) (UniProt Q9NWZ3).
T2 sequence (whole entry): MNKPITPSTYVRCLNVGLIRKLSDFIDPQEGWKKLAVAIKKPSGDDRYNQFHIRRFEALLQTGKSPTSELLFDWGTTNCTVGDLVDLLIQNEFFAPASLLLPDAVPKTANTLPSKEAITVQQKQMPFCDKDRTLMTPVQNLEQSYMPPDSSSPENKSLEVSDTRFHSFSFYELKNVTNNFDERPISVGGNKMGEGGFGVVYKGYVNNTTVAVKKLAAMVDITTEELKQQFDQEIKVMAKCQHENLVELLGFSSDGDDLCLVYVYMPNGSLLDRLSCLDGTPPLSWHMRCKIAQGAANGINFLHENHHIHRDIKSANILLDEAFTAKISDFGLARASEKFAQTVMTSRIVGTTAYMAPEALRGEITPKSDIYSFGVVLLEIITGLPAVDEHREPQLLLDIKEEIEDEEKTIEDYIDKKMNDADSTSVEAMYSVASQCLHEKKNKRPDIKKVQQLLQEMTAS
Briefly: Inhibition of IRAK4 (unknown origin) at 10 uM incubated for 30 mins in presence of [gamma-33P]ATP by multidrop micro reagent based assay relative to control; values are per cent of control.

The target of experiment [5] is Mitogen-activated protein kinase 9 (Homo sapiens) (UniProt P45984). Briefly: Inhibition of JNK2 (unknown origin) at 1 uM incubated for 30 mins in presence of [gamma-33P]ATP by multidrop micro reagent based assay relative to control; values are per cent of control.
Mitogen-activated protein kinase 9 (Homo sapiens), sequence (P45984 whole entry, looked up): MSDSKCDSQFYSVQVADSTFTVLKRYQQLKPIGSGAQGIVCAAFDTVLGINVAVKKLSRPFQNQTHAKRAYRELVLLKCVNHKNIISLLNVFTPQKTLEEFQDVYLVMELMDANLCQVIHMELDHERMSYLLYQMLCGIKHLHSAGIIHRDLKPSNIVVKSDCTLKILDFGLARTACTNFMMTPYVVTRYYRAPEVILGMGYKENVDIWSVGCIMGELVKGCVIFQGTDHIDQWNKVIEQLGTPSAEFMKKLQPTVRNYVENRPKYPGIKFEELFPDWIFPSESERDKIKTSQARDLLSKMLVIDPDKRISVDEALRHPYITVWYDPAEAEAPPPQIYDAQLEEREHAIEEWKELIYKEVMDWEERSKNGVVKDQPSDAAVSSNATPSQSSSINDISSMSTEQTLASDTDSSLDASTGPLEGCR
Experiment [6] has as its target T3, Dual specificity protein kinase TTK (Homo sapiens) (UniProt P33981).
T3 sequence (whole entry): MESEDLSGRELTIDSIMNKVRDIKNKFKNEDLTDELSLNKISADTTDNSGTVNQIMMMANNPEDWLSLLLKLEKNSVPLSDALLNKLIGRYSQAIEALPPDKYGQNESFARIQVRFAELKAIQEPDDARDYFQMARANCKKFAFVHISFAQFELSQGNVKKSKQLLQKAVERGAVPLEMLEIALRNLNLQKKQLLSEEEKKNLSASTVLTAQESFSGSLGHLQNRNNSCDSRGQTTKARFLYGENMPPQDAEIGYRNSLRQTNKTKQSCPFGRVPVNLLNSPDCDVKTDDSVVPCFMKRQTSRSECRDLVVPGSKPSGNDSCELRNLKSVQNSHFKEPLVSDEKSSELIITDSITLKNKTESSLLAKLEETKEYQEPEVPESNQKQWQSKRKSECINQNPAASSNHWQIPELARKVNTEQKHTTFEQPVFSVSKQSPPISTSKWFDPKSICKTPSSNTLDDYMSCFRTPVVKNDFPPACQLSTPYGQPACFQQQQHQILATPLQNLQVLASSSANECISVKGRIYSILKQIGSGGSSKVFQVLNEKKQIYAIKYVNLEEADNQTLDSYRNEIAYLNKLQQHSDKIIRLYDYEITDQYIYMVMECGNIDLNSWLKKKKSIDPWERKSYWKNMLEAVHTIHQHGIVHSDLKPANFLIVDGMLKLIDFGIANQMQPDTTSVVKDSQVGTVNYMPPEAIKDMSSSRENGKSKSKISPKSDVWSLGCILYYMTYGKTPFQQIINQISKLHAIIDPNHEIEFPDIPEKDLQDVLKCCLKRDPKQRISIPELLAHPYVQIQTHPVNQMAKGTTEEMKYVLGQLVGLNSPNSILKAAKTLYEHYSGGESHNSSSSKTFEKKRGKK
Briefly: Inhibition of TTK (unknown origin) at 1 uM incubated for 30 mins in presence of [gamma-33P]ATP by multidrop micro reagent based assay relative to control; values are per cent of control.

The species entered for experiment [7] is Homo sapiens. The experiment can be described thus: Inhibition of PHK (unknown origin) at 1 uM incubated for 30 mins in presence of [gamma-33P]ATP by multidrop micro reagent based assay relative to control; values are per cent of control.

Serine/threonine-protein kinase Chk2 (Homo sapiens), sequence (O96017 whole entry): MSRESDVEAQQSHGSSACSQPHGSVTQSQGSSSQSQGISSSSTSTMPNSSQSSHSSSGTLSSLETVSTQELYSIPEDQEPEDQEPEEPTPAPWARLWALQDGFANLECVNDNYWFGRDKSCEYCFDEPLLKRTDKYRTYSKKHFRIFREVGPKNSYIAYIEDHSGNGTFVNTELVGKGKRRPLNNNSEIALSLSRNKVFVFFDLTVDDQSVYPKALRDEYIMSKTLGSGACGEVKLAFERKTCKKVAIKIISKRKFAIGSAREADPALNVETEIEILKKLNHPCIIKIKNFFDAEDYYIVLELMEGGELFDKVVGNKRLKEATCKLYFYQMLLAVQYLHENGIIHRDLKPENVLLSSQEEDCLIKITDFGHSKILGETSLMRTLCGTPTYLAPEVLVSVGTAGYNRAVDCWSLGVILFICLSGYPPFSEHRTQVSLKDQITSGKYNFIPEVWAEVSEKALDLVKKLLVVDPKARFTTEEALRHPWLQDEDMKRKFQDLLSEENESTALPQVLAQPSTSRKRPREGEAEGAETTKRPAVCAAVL

For the compound `C[C@@H](N)[C@H]1CC[C@H](C(=O)Nc2ccncc2)CC1`, the residual activity stood at 93% in experiment [1], 81% in experiment [2], 105% in experiment [3] and 101% in experiment [4].

Take `CCn1c(-c2nonc2N)nc2cnc(Oc3cccc(NC(=O)c4ccc(OCCN5CCOCC5)cc4)c3)cc21` [GSK-269962A]: the residual activity in experiment [5] was 101%; in experiment [6], 69%.

On to `CCN(CC)CCNC(=O)c1c(C)[nH]c(/C=C2\C(=O)Nc3ccc(F)cc32)c1C`, for which the residual activity in experiment [7] amounted to 2%.

As for `O=S(=O)(c1cccc2cnccc12)N1CCCNCC1` [FASUDIL], the residual activity turned out to be 34% in experiment [1], 120% in experiment [2], 70% in experiment [3] and 69% in experiment [4].

In the case of `CC1=C(C(=O)Nc2cc3cn[nH]c3cc2F)C(c2ccc(C(F)(F)F)cc2)CC(=O)N1` (centres undefined), the residual activity in experiment [5] is 101%; in experiment [7] it was 97%; in experiment [6] it was 83%.
